Results published in US9029076B2, “Tissue preservation and fixation method” (George Mason Research Foundation, Inc., priority 2006, dated 2015).

Tests used:
Assay in all cases: RPA phosphoprotein level after 24 h storage of tumor needle samples in preservatives
Settings in all cases: 24 h in preservative at 4° C., relative normalized RPA intensity
CC3 Asp175 = system: CC3 Asp175
Procedure: (§1) The RPA format, originated by the present inventors and collaborators (see, e.g., Paweletz et al. (2001) Oncogene 20, 1981-1989), immobilizes an individual test sample in a miniature dilution curve such that an array contains hundreds of different patient samples, treatments, or time points. In the RPA format, each array is incubated with one detection protein (e.g. anti-peptide antibody), and a single analyte endpoint is measured and directly compared across multiple samples. Briefly, the lysates are printed on glass backed nitrocellulose array slides (FAST Slides Whatman, Florham Park, N.J. or ONCYTE slides Grace BioLabs, Bend, Oreg.) using a robotic array printing device (GMS 417 arrayer (Affymetrix, Santa Clara, Calif. or Aushon 2470, Aushon Biosystems, Burlington, Mass. equipped with 125-500 μm pins). Each lysate is printed in a dilution curve representing neat, 1:2, 1:4, 1:8, 1:16 and negative control dilutions. The slides are stored with desiccant (Drierite, W. A. Hammond, Xenia, Ohio) at −20° C. prior to immunostaining.
(§2) Immunostaining is performed on an automated slide stainer per manufacturer's instructions (Autostainer CSA kit, Dako, Carpinteria, Calif.). Each slide is incubated with a single primary antibody at room temperature for 30 minutes. Polyclonal primary antibodies can be, e.g.: GSK3α/β Tyr279/216 (Invitrogen-Biosource, Carlsbad, Calif.), BCL-2, HIF-1α (BD, Franklin Lakes, N.J.), 4EBP1, FKHR ser256, eIF4E, eIF4E ser209, eIF4G, eIF4G ser1108, IGFR-β, IRS-1, IRS-2, IRS-1 ser612, SGK, Bak, Bax, BAD, BAD ser112, BAD ser136, BAD ser155, B-Raf, mTOR, mTOR ser2448, p70S6 Thr389, p70S6 kinase, p70S6 ser371, S6 kinase ser240/244, Akt, Akt ser473, Akt Thr308, 4EBP1 ser65, 4EBP1 ser70, and 4EBP1 Thr37/46 (Cell Signaling Technology, Danvers, Mass.). A negative control slide is incubated with antibody diluent. Secondary antibody can be goat anti-rabbit IgG H+L (1:5000) (Vector Labs, Burlingame, Calif.).
(§3) Each array is scanned, spot intensity analyzed, data normalized, and a standardized, single data value can be generated for each sample on the array (Image Quant v5.2, GE Healthcare, Piscataway, N.J.) or MicroVigene v2.8, Vigene Tech, Billerica, Mass.). Spot intensity is integrated over a fixed area. Local area background intensity is calculated for each spot with the unprinted adjacent slide background. […] The Ward method for two-way hierarchical clustering can be performed using JMP v5.0 (SAS Institute, Cary N.C.). Wilcoxon two-sample rank sum test can be used to compare values between two groups. P values less than 0.05 are considered significant. When one cannot assume a normal distribution of the variables, non-parametric methods are used. Kaplan-Meier (log-rank) survival estimates for univariate survival analysis can be used.
(§4) Briefly, tumor tissues from gastrinoma/liver, mesothelioma and parathyroid tumors were sampled by five needle passes and placed into the preservatives listed in Table 5. […] Immediate lysis and denaturation of the cellular proteins were accomplished by standard Pierce Tissue Protein Extraction Buffer (T-PER), with additional SDS, denaturing reagents, and detergents. The cell samples were stored 24 h in the listed preservatives at 4° C. and then the listed phosphoprotein endpoints were measured. […] Some values dropped to zero while others are markedly elevated compared to the freshly lysed cell baseline. […] They were unable to stabilize the phosphorylation state of key signal proteins over a storage period of 24 hours, which is a typical time delay for cell or tissue shipment. Numbers in the table are relative normalized intensity values using the RPA technology described herein.

IRS-1 ser612 = system: IRS-1 ser612
Procedure: as §1, §2, §3, §4

EGFR Y1148 = system: EGFR Y1148
Procedure: as §1, §2, §3, §4

CREB ser133 = system: CREB ser133
Procedure: as §1, §2, §3, §4

IKappa-Ba ser32 = system: IKappa-Ba ser32
Procedure: as §1, §2, §3, §4

AKT ser473 = system: AKT ser473
Procedure: as §1, §2, §3, §4

ERK T202/Y204 = system: ERK T202/Y204
Procedure: as §1, §2, §3, §4

AKT Thr308 = system: AKT Thr308
Procedure: as §1, §2, §3, §4

p38 T180/182 = system: p38 T180/182
Procedure: as §1, §2, §3, §4

GSK3ab ser21/9 = system: GSK3ab ser21/9
Procedure: as §1, §2, §3, §4

[1] = Gastrinoma/liver tumor, Lysis Buffer = frozen immediately after lysis
[2] = Parathyroid tumor, Lysis Buffer = frozen immediately after lysis

SMILES	CC3 Asp175 Normalized data (CC3 Asp175; [1])	CC3 Asp175 Normalized data (CC3 Asp175; Mesothelioma)	CC3 Asp175 Normalized data (CC3 Asp175; [2])	IRS-1 ser612 Normalized data (IRS-1 ser612; [1])	IRS-1 ser612 Normalized data (IRS-1 ser612; Mesothelioma)	IRS-1 ser612 Normalized data (IRS-1 ser612; [2])	EGFR Y1148 Normalized data (EGFR Y1148; [1])	EGFR Y1148 Normalized data (EGFR Y1148; Mesothelioma)	EGFR Y1148 Normalized data (EGFR Y1148; [2])	CREBser133 Normalized data (CREB ser133; [1])	CREBser133 Normalized data (CREB ser133; Mesothelioma)	CREBser133 Normalized data (CREB ser133; [2])	IKappa-Ba ser32 Normalized data (IKappa-Ba ser32; [1])	IKappa-Ba ser32 Normalized data (IKappa-Ba ser32; Mesothelioma)	IKappa-Ba ser32 Normalized data (IKappa-Ba ser32; [2])	AKT ser473 Normalized data (AKT ser473; [1])	AKT ser473 Normalized data (AKT ser473; Mesothelioma)	AKT ser473 Normalized data (AKT ser473; [2])	ERK T202/Y204 Normalized data (ERK T202/Y204; [1])	ERK T202/Y204 Normalized data (ERK T202/Y204; Mesothelioma)	other results
CC(C)=O [Acetone]	38.23	26.75	29.46	33.10	10.72	40.55	65.10	49.89	81.36	91.79	83.10	83.74	48.91	36.08	49.65	4.56	27.53	13.12	46.15	55.31	ERK T202/Y204 Normalized data (ERK T202/Y204; [2]): 77.97; AKT Thr308 Normalized data (AKT Thr308; [1]): 25.45; AKT Thr308 Normalized data (AKT Thr308; Mesothelioma): 30.05; AKT Thr308 Normalized data (AKT Thr308; [2]): 21.93; p38 T180/182 Normalized data (p38 T180/182; [1]): 77.58; p38 T180/182 Normalized data (p38 T180/182; Mesothelioma): 87.57; p38 T180/182 Normalized data (p38 T180/182; [2]): 72.96; GSK3ab ser21/9 Normalized data (GSK3ab ser21/9; [1]): 35.47; GSK3ab ser21/9 Normalized data (GSK3ab ser21/9; Mesothelioma): 55.72; GSK3ab ser21/9 Normalized data (GSK3ab ser21/9; [2]): 123.00
CO [Methanol]	37.64	16.93	14.80	65.97	37.33	23.51	81.50	63.00	53.41	131.23	114.37	65.44	54.98	41.23	36.25	4.15	11.14	11.06	46.47	18.87	ERK T202/Y204 Normalized data (ERK T202/Y204; [2]): 28.54; AKT Thr308 Normalized data (AKT Thr308; [1]): 43.73; AKT Thr308 Normalized data (AKT Thr308; Mesothelioma): 32.75; AKT Thr308 Normalized data (AKT Thr308; [2]): 28.31; p38 T180/182 Normalized data (p38 T180/182; [1]): 76.09; p38 T180/182 Normalized data (p38 T180/182; Mesothelioma): 53.36; p38 T180/182 Normalized data (p38 T180/182; [2]): 34.09; GSK3ab ser21/9 Normalized data (GSK3ab ser21/9; [1]): 33.59; GSK3ab ser21/9 Normalized data (GSK3ab ser21/9; Mesothelioma): 66.02; GSK3ab ser21/9 Normalized data (GSK3ab ser21/9; [2]): 53.28
OC[C@H]1O[C@@](CO)(O[C@H]2O[C@H](CO)[C@@H](O)[C@H](O)[C@H]2O)[C@@H](O)[C@@H]1O [30% sucrose, sucrose]	61.02	17.90	2.23	31.46	1.84	0.00	65.97	22.84	6.14	69.03	22.82	2.09	69.82	0.00	0.33	16.16	19.36	3.27	48.68	15.67	ERK T202/Y204 Normalized data (ERK T202/Y204; [2]): 1.15; AKT Thr308 Normalized data (AKT Thr308; [1]): 42.04; AKT Thr308 Normalized data (AKT Thr308; Mesothelioma): 12.13; AKT Thr308 Normalized data (AKT Thr308; [2]): 0.00; p38 T180/182 Normalized data (p38 T180/182; [1]): 63.91; p38 T180/182 Normalized data (p38 T180/182; Mesothelioma): 28.71; p38 T180/182 Normalized data (p38 T180/182; [2]): 1.15; GSK3ab ser21/9 Normalized data (GSK3ab ser21/9; [1]): 37.27; GSK3ab ser21/9 Normalized data (GSK3ab ser21/9; Mesothelioma): 3.12; GSK3ab ser21/9 Normalized data (GSK3ab ser21/9; [2]): 0.00
[Cl-].[Na+] [0.9% saline, sodium chloride]	14.57	10.85	5.46	4.82	2.34	0.00	39.76	24.62	6.57	24.09	17.20	5.35	29.64	16.87	1.87	3.76	9.78	1.84	10.75	7.72	ERK T202/Y204 Normalized data (ERK T202/Y204; [2]): 0.00; AKT Thr308 Normalized data (AKT Thr308; [1]): 9.73; AKT Thr308 Normalized data (AKT Thr308; Mesothelioma): 8.97; AKT Thr308 Normalized data (AKT Thr308; [2]): 0.00; p38 T180/182 Normalized data (p38 T180/182; [1]): 33.41; p38 T180/182 Normalized data (p38 T180/182; Mesothelioma): 26.34; p38 T180/182 Normalized data (p38 T180/182; [2]): 4.79; GSK3ab ser21/9 Normalized data (GSK3ab ser21/9; [1]): 12.25; GSK3ab ser21/9 Normalized data (GSK3ab ser21/9; Mesothelioma): 9.46; GSK3ab ser21/9 Normalized data (GSK3ab ser21/9; [2]): 0.00
